Experimental data from ChEMBL document CHEMBL1201862, “PubChem BioAssay data set” (2004).
Activity calls are given as the source filed them.

Experiments:
[1] = target: T1, Tyrosine-protein phosphatase non-receptor type 5 (Homo sapiens, UniProt P54829); assay: PTPN5 enzyme inhibition – biochemical, fluorescence intensity, uHTS hits, confirmation (AID 602372); format: functional; conditions: read-out: IC50_Mean
T1 sequence (P54829 whole entry): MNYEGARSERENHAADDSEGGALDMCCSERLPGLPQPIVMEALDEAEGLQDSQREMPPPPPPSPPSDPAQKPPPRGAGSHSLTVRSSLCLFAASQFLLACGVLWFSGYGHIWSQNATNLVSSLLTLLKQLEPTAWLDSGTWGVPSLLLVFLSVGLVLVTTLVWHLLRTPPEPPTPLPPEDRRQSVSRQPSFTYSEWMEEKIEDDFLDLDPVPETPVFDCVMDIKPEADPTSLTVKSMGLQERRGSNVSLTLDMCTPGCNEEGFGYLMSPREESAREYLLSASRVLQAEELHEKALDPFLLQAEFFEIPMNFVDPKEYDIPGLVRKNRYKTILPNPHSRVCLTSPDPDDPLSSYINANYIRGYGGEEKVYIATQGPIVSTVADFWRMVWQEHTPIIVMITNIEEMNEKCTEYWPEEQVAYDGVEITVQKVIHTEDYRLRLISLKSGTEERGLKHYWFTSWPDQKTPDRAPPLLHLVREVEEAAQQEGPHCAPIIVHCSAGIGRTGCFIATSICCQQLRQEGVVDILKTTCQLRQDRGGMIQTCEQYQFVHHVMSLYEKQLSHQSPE

SUMO-activating enzyme [2] = target: T2, SUMO-activating enzyme (Homo sapiens, UniProt Q9UBT2); assay: blockers of UBC9-mediated SUMO conjugation – biochemical, AlphaScreen, SUMOylation inhibitor project, confirmation (AID 2018); format: functional
[3] = target: Dual specificity protein phosphatase 3 (Homo sapiens, UniProt P51452); assay: VHR phosphatase inhibition, dose response, selectivity assay for STEP inhibitor project, biochemical (AID 602374); format: functional; conditions: read-out: IC50_Mean
[4] = target: T3, Small ubiquitin-related modifier 1 (Homo sapiens, UniProt P63165); assay: SUMO1 protein interaction blockers, potency – biochemical, fluorescence polarization, uHTS hits, dose response (AID 624382); format: functional; conditions: read-out: IC50_Mean
[5] = target: 72 kDa type IV collagenase (Homo sapiens, UniProt P08253); assay: Dose Response validation of uHTS RPN11 inhibitor hits using a MMP-2 Fluorescence assay.; format: functional
Prothrombin [6] = target: Prothrombin (Bos taurus, UniProt P00735); assay: thrombin protease inhibitors – biochemical, fluorescence polarization, uHTS hits, dose response (AID 602369); format: functional
SUMO-activating enzyme [7] = target: T2, SUMO-activating enzyme; assay: blockers of SAE1/SAE2–UBC9 SUMO transfer – biochemical, HTRF, uHTS, primary screen (AID 2006); format: protein-complex assay
[8] = target: 26S proteasome non-ATPase regulatory subunit 14 (Homo sapiens, UniProt O00487); assay: inhibition of proteasome subunit RPN11 – biochemical, fluorescence polarization, uHTS hits, confirmation (AID 602368); format: functional
[9] = target: T3, Small ubiquitin-related modifier 1; assay: SUMO1 protein-protein binding blockers, potency – biochemical, FRET, dose response (AID 624383); format: functional; conditions: read-out: IC50_Mean
[10] = target: T4, Tyrosine-protein phosphatase non-receptor type 11 (Homo sapiens, UniProt Q06124); assay: PTPN11 enzyme inhibitors – biochemical, selectivity assay for STEP inhibitor project, dose response (AID 602367); format: functional; conditions: read-out: IC50_Mean
T4 sequence (Q06124 whole entry): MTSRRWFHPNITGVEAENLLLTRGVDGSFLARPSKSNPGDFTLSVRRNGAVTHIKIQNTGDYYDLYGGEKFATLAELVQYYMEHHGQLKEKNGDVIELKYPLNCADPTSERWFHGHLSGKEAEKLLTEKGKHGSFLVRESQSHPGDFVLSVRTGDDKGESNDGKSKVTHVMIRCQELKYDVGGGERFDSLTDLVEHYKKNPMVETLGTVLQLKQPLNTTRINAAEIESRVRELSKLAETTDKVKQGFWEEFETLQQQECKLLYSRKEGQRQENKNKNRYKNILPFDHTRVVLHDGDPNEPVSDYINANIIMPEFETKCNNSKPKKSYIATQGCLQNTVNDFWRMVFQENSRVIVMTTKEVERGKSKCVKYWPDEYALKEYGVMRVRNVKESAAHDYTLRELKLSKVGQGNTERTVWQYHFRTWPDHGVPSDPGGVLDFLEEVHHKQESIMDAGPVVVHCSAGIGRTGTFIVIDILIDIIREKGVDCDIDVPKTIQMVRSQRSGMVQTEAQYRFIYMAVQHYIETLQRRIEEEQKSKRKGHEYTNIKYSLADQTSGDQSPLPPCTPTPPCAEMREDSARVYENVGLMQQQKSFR

[11] = Luminescence Cell-Based Dose Retest to Confirm Inhibitors of Cancer Stem Cells. [Related pubchem assays (depositor defined):AID2717, AID2721]; format: functional, Homo sapiens
Tumor necrosis factor = Tumor necrosis factor (Homo sapiens, UniProt P01375); assay: analog potency on TNFa NF-kB signaling – cell-based, revised, SAR follow-up (AID 2337); format: functional
[12] = target: T5, Nucleotide-binding oligomerization domain-containing protein 1 (Homo sapiens, UniProt Q9Y239); assay: blockers of NOD1 pathway activity – revised, SAR follow-up (AID 2333); format: functional
T5 sequence (Q9Y239 whole entry): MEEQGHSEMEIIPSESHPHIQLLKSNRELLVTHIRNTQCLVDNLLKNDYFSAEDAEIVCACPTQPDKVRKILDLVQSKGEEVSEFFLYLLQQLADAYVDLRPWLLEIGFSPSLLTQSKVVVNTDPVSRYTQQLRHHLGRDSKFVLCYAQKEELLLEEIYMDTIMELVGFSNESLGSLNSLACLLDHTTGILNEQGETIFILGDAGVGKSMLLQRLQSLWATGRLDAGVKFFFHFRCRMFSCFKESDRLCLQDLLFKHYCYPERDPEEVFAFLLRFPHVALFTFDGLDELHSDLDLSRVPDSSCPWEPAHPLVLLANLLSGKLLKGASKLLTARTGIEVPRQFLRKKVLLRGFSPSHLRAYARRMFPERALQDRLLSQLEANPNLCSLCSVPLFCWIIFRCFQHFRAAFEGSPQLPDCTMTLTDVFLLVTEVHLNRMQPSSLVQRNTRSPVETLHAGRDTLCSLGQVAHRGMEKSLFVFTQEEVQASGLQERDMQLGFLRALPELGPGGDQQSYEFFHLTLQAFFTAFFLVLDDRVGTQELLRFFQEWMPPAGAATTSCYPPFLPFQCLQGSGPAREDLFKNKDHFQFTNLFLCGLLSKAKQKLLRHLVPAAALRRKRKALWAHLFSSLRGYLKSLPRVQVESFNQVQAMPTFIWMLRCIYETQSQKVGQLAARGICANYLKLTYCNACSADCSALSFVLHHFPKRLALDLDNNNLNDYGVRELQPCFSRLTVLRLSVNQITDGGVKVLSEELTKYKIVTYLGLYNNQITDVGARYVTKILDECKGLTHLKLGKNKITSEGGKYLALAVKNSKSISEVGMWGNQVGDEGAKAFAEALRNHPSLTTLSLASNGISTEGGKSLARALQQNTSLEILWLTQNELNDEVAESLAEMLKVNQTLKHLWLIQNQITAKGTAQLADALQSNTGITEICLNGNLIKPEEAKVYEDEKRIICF

[13] = target: Nucleotide-binding oligomerization domain-containing protein 2 (Homo sapiens, UniProt Q9HC29); assay: inhibition of NOD2-driven NF-kB reporter – cell-based, luminescence, uHTS, HEK293 (AID 1566); format: functional
INS1 = assay: INS-1E survival protection against cytokine death – cell-based, luminescence, retest, dose response (AID 449756); format: functional; conditions: Rattus norvegicus;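 further: cell death triggered by IL-1 beta plus TNF-alpha plus IFN-gamma mixture; protective hits raise ATP signal compared with cytokine alone wells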
Beta Lactamase = Beta Lactamase (Pseudomonas aeruginosa, UniProt Q932Y6); assay: BLA reporter interference, concentration series – BLA reporter cells, FRET fluorescence, artefact control for TLR9-MyD88 binding inhibitor project, dose response (AID 588341); format: cell-based;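 further: cell based assay in CHO-K1 cells stably expressing beta-lactamase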
[14] = target: DNA damage-inducible transcript 3 protein (Mus musculus, UniProt P35639); format: functional, Cricetulus griseus
[15] = viability of HCT116 lacking mutant beta-catenin – cell-based, human colon tumor, dose response (AID 1045); format: functional;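 further: HCT116 colon tumor cells with beta catenin knocked out; cells exposed to compound for 60 hours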
CHO = CHO cell viability loss, potency – luminescence, cytotoxicity control for TLR9-MyD88 binding inhibitor project, dose response (AID 588339); format: functional, cell-based, hamster; conditions: Cricetulus griseus;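 further: CHO cells stably coexpressing TLR9 and MyD88 fusions from primary screen; compound exposure lasted 48 hours before viability readout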
[16] = viability of PTEN-deleted HCT116 cells – cell-based, HCT116 PTEN knockout, dose response (AID 1047); format: functional;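 further: HCT116 colon tumor cells with PTEN knocked out; cells exposed to compound for 60 hours before readout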
Troponin, cardiac muscle = Troponin, cardiac muscle (Homo sapiens, UniProt P19429+P45379+P63316); assay: Fluorescence-based biochemical high throughput dose response assay for activators of the calcium sensitivity of cardiac Regulated Thin Filaments (RTF). [Related pubchem assays (depositor defined):AID493008, AID493018, AID504382, AID504383]; format: protein-complex assay
Coagulation factor XII = target: T6, Coagulation factor XII (Homo sapiens, UniProt P00748); format: functional;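 further: activated factor XIIa alpha cleaving a fluorogenic AMC peptide substrate; inhibitor potency from loss of enzyme activity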
T6 sequence (P00748 whole entry): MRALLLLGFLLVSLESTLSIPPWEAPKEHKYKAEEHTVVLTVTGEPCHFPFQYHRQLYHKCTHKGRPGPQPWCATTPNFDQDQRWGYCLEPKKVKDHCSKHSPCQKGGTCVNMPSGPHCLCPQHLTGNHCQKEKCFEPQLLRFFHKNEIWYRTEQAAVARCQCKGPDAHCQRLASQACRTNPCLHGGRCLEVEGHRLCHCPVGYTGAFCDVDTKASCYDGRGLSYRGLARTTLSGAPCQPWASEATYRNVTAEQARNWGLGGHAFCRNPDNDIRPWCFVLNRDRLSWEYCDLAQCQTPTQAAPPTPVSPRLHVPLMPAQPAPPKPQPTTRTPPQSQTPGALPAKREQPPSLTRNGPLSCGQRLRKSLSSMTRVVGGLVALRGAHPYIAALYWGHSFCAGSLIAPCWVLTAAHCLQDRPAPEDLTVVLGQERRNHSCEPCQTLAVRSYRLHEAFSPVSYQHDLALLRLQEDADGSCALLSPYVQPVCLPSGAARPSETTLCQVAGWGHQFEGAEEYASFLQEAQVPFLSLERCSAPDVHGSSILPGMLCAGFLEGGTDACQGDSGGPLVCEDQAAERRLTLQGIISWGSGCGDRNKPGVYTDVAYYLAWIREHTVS

H4 = assay: Luminescence Cell-Based Dose Response HTS to Identify Activators of 5'UTR Stem-Loop Driven Prion Protein mRNA Translation in H4 Neuroglioblastoma Cells. [Related pubchem assays: 1829 (Project Summary), 1814 (Primary HTS)]; format: functional; conditions: Homo sapiens
Prothrombin [17] = target: Prothrombin (Homo sapiens, UniProt P00734); assay: Thrombin 1536 HTS Dose Response Confirmation. [Related pubchem assays: 1046 (Thrombin 1536 HTS; hits were confirmed in this assay)]; format: functional
[18] = Luminescence Cell-Based Dose Response HTS to Identify Activators of Luciferase Translation or Activity in H4 […] Cells. [Related pubchem assays: 1829 (Project Summary), 1814 (Primary HTS)]; format: functional
[19] = target: G-protein coupled receptor 55 (Homo sapiens, UniProt Q9Y2T6); assay: inhibition of LPI-stimulated GPR55 beta-arrestin translocation – imaging, U2OS, beta-arrestin-GFP, LPI agonist, primary screen (AID 2013); format: functional;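 further: antagonist potency measured as reduced agonist-driven arrestin aggregation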
[20] = target: T7, Calpain-2 catalytic subunit (Sus scrofa, UniProt P43367); assay: m-calpain protease blockers, concentration series – biochemical, fluorogenic peptide substrate, dose response (AID 1420); format: functional
T7 sequence (P43367 whole entry): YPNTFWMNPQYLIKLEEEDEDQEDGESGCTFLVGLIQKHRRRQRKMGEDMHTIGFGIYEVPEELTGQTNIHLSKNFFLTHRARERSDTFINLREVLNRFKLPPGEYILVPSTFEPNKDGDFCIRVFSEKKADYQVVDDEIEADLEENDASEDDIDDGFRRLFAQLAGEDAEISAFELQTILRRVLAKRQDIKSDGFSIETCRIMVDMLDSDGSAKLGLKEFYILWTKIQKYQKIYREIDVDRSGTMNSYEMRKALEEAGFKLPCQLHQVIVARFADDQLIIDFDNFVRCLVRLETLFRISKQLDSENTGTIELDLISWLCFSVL

O=Cc1cn(-c2ccccc2)nc1-c1cc2cc(O)ccc2oc1=O
IC50 [1]: 27.5 µM (inactive) | IC50 (SUMO-activating enzyme [2]): 11.4 µM (active) | IC50 [3]: 3.02 µM (active) | IC50 [4]: > 66.6 µM (inactive) | IC50 [5]: > 100 µM (inactive) | IC50 (Prothrombin [6]): 35.5 µM (active) | IC50 (SUMO-activating enzyme [7]): 18.1 µM (active) | IC50 [8]: 19.4 µM (active) | IC50 [9]: 7.28 µM (active) | IC50 [10]: 1.96 µM (active)

C=C(C)[C@@H]1CC[C@]2(C(=O)O)CC[C@]3(C)[C@H](CC[C@@H]4[C@@]5(C)CC[C@H](O)C(C)(C)[C@@H]5CC[C@]43C)[C@@H]12 [BETULINIC ACID]
AC50 [11]: 1.94 µM (active) | AC50 ([11]; Homo sapiens): 3.05 µM (active) | IC50 (SUMO-activating enzyme [2]): 13.2 µM (active) | IC50 (SUMO-activating enzyme [7]): 9.24 µM (active)

Cc1oc(-c2ccccc2Cl)nc1CSc1nc2c(c(=O)[nH]1)CCCC2
IC50 (Tumor necrosis factor): 3.09 µM (active) | IC50 [12]: 5.75 µM (active) | EC50 [13]: 0.73 µM (active)

Cc1ccccc1NC(=O)/C=C/c1ccc([N+](=O)[O-])s1
AC50 (INS1): 6.17 µM (active) | IC50 (Beta Lactamase): 13.7 µM (inactive) | Absolute IC50 (CHOP) [14]: 10 µM | EC50 [15]: 1.16 µM (active) | IC50 (CHO): 2.22 µM (active) | EC50 [16]: 1.6 µM (active)

CC(=O)Oc1ccc(NC(=O)Cc2ccccc2)c(C(=O)O)c1
EC50 (Troponin, cardiac muscle): > 71.5 µM (inactive)

O=C(NNC1=NCCCCC1)Nc1cccc(Cl)c1
IC50 (Coagulation factor XII): > 50 µM (inactive) | EC50 (H4): 0.242 µM (active) | IC50 (Prothrombin [17]): 7.74 µM (active) | EC50 [18]: 0.409 µM (active)

N=c1c2c(ncn1Cc1ccco1)Oc1cc(O)ccc1C2c1ccccc1 (stereo not drawn)
IC50 [19]: 1.2 µM (active) | EC50 (Troponin, cardiac muscle): > 71.4 µM (inactive)

Clc1ccc2[nH]c(-c3ccccc3)cc2c1
Absolute IC50 (CHOP) [14]: 10 µM

O=C1N=C(Nc2ccccc2)S/C1=C/c1cccs1
IC50 (Coagulation factor XII): > 50 µM (inactive) | IC50 [20]: > 50 µM (not active)
